This experiment has as its target zebrafish ERβ2 (zfERβ2) (Danio rerio, UniProt Q7ZU32). Description: ZELH-zfERβ2 luciferase reporter gene assay. It is filed as cell-based. As to conditions: % of positive control E2 10 nM. (In general: A reporter such as luciferase makes a cellular process visible.)

Chain of zebrafish ERβ2 (zfERβ2) (Q7ZU32 1-553): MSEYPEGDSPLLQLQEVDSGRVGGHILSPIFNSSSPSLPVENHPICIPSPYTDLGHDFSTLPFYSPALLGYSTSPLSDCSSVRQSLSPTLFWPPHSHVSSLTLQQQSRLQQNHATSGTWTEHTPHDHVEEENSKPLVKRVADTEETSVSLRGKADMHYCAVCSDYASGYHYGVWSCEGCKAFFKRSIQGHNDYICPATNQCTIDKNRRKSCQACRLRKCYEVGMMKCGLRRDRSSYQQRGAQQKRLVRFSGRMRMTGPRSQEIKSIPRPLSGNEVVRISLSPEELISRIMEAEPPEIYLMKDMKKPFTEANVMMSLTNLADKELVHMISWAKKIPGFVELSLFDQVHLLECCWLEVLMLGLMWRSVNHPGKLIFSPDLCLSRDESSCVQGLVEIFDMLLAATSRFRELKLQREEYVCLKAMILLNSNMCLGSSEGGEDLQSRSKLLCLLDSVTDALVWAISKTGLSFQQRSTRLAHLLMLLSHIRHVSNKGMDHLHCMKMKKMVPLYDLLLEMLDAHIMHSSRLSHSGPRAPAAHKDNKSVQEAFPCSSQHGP

The molecule `CC(C)(c1ccc(O)cc1)c1ccc(O)cc1` [BPA, 4-[2-(4-hydroxyphenyl)propan-2-yl] phenol] gave a maximal efficacy of 55%.

For the origin of these results see article PMC13130965, “An Integrated Approach Combining Regulatory Tests in tg(cyp19a1b:GFP) Zebrafish Embryos to Assess Toxicity, Developmental Effects, and Estrogenic Activity of Chemicals: A Case Study with Bisphenol A Substitutes” (Environmental Science & Technology, 2026).
